Test results: patent US6485955B1, “Quiescent cell dipeptidyl peptidase: a novel cytoplasmic serine protease” (The Trustees of Tufts University, priority 1997, dated 2002)
Where two headings read alike, the source gives them in different places. Peptide text beside a SMILES is read from it. * marks the point of attachment. Cbz = O=C(OCc1ccccc1)*; CH2F = FC*

Experiments:
QPP = QPP (Homo sapiens, UniProt Q9UHL4); experiment: AlaProAFC cleavage by PBMC cytosolic preparation (QPP peptidase activity); type: biochemical; settings: for QPP inhibition (inhibitory profile): comparison with DPIV profile
[1] = system: purified T-cells (CD4+/CD8+); experiment: VbP-induced death of purified resting T-cells; type: cell-based, human; settings: for effect on VbP-mediated T-cell death: added with VbP, non-cycling T-cells
Description: (§1) Methods. […] Sorted cell populations were >90% pure.

[2] = system: peripheral blood mononuclear cells (PBMC); experiment: Cell death in overnight cultures of freshly isolated PBMC; settings: for number of dead cells / PCD induction in resting PBMC cultures: compared to media alone
CD19+ B cells = experiment: VbP-induced death of B cells; type: cell-based, human
CD11b+ monocytes = experiment: VbP-induced death of monocytes; type: cell-based, human
activated PBMC = experiment: Induced death of activated PBMC (PHA blasts) and long term cultured cells; type: cell-based, human
Description: as §1

[3] = system: phosphatidylserine (PS) on the surface of cells; experiment: FITC-annexin V detection of surface phosphatidylserine; type: cell-based, human; settings: cells treated with VbP
[4] = system: serum-starved, G0 phase fibroblasts; experiment: Apoptosis of serum-starved G0 fibroblasts transfected with QPP transgene; type: cell-based; settings: compared to non-QPP transfected fibroblasts
Description: The role of QPP in protecting quiescent (non-cycling) cells from death was confirmed in fibroblasts transfected with a QPP transgene sequence using standard techniques.

DPIV = DPIV (Homo sapiens, UniProt P27487); settings: cited from earlier work
Sequence of DPIV (P27487 whole entry): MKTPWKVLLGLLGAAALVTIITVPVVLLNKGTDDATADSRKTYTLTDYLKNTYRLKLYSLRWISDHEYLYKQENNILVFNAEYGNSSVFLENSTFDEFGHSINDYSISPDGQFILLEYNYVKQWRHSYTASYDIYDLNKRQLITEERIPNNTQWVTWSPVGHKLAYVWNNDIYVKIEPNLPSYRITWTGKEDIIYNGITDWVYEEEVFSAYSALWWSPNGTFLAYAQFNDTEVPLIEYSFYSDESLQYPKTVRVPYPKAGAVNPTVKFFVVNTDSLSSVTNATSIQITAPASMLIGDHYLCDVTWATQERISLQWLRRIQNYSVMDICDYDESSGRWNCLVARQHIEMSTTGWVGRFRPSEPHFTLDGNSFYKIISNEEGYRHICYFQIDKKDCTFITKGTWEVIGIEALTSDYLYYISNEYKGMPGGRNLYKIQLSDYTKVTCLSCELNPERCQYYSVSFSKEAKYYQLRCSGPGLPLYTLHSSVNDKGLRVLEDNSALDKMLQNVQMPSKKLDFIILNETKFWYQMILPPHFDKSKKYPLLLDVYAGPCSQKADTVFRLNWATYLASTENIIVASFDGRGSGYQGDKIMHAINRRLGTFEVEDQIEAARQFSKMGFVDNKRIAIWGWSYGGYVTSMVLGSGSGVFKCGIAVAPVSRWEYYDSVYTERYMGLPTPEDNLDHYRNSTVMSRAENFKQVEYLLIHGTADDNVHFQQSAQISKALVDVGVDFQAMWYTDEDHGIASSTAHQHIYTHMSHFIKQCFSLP

[5] = PBMC cytosolic preparation, high concentrations

## NC(=O)CI [IAA]
QPP
  inhibition of cytosolic AlaProAFC cleaving enzymatic activity: partially inhibited

## NC(CCCCNC(=O)OCc1ccc([N+](=O)[O-])cc1)C(=O)N1CCSC1 (stereo not shown) [Lys-thiazolidide, NO2-Z-Lys-thiazolidide]
QPP
  QPP inhibition (inhibitory profile): most potent inhibitors

## (Z)-Ala-[CF═C]-Pro-NHO-Bz(4NO2) [L-125]
QPP
  QPP inhibition (inhibitory profile): did not inhibit QPP

## COC(=O)C[C@H](NC(=O)[C@H](C)NC(=O)[C@@H](NC(=O)OCc1ccccc1)C(C)C)C(=O)CF [Z-VADfmk] (Cbz-Val-Ala-Asp(OMe)-CH2F)
[1]
  effect on VbP-mediated T-cell death: blocked

## CC(C)[C@@H](N)C(=O)N1CCC[C@H]1B(O)O [d-Val-d-boroPro]
[2]
  number of dead cells / PCD induction in resting PBMC cultures: inactive

## CCN1C(=O)C=CC1=O [NEM]
QPP
  inhibition of cytosolic AlaProAFC cleaving enzymatic activity: partially inhibited

## N=C(N)c1ccccc1 [benzamidine]
QPP; [5]
  inhibition of cytosolic AlaProAFC cleaving enzymatic activity: partially inhibited

## CC(C)[C@H](N)C(=O)N1CCC[C@H]1B(O)O [VbP, Val-boroPro]
[1]; CD26+ and CD26- resting T-cells
  T-cell death in CD26+ versus CD26- resting T-cell subpopulations: to the same degree
[1]; purified T-cells (CD4+/CD8+) vs whole PBMC
  susceptibility to VbP-induced death: greater sensitivity than whole PBMC
CD19+ B cells
  susceptibility to VbP-induced death: resistant
CD11b+ monocytes
  susceptibility to VbP-induced death: resistant
Activated PBMC
  susceptibility of activated PBMC to induced PCD: resistant
Activated PBMC; activated PBMC maintained in culture until G0
  susceptibility to VbP-induced PCD after return to non-cycling phase (G0): regain sensitivity
[3]
  amount of PS on the surface of cells (FITC-annexin V): time-dependent increase
QPP; PBMC cytosolic preparation (110,000 g supernatant)
  inhibition of cytosolic AlaProAFC cleaving enzymatic activity: inhibited
QPP
  QPP inhibition (inhibitory profile): most potent inhibitors
[2]; PBMC cultures
  time at which dead cells were apparent after addition: 4 h
  time to maximal death: ≤ 24 h
[2]; PBMC cultures, within 24 hours
  maximal death: about 70%
[2]
  number of dead cells / PCD induction in resting PBMC cultures: striking increase in the number of dead cells

## CC(=O)N[C@@H](CSC(=O)[C@]1([C@@H](O)C(C)C)NC(=O)[C@H](C)[C@@H]1O)C(=O)O [lactacystin]
[1]
  effect on VbP-mediated T-cell death: neither the anti-Fas mAb M3 nor lactacystin had any effect
Activated PBMC
  susceptibility of activated PBMC to induced PCD: susceptible
[2]
  number of dead cells / PCD induction in resting PBMC cultures: does not induce PCD

## Cc1ccc(S(=O)(=O)N[C@@H](CCCCN)C(=O)CCl)cc1 [TLCK]
QPP
  inhibition of cytosolic AlaProAFC cleaving enzymatic activity: partially inhibited

## recombinant QPP: recombinant quiescent cell post-prolyl dipeptidase polypeptide expressed from a transgene in fibroblasts
[4]
  apoptosis of quiescent fibroblasts: inhibited apoptosis

## O=S(=O)(F)Cc1ccccc1 [PMSF]
QPP; [5]
  inhibition of cytosolic AlaProAFC cleaving enzymatic activity: partially inhibited

## NC(CCCCNC(=O)OCc1ccc([N+](=O)[O-])cc1)C(=O)N1CCCCC1 (stereo not shown) [Lys-piperidide, NO2-Z-Lys-piperidide]
QPP
  QPP inhibition (inhibitory profile): did inhibit QPP at higher concentrations than Lys-thiazolidide
DPIV
  DPIV inhibition: does not inhibit DPIV
